Experiments:
[1] = tested on: ACE (acetylcholinesterase) of resistant mosquitoes; settings: 10 microliters insecticide solution (10^-2 M), 15 min at ambient temperature, optical density over 10 min
Experimental: (§1) The differences in the properties of the ACE (acetylcholinesterase) between mosquitoes that have this form of resistance and sensitive mosquitoes can be detected using the following test: • Experimental protocol TESTS No.-1: Sensitive and resistant mosquitoes.
(§2) 1° the mosquito (or larva) is crushed and the crushed material is homogenized in an Eppendorf tube with a buffer solution (20 mM tris, pH 7, containing 1% of Triton X-100). After centrifugation at 10,000 g for 2 minutes, the supernatant (which contains the ACE) is collected and distributed in the wells (A) and (B) of a microplate (100 microliters in each well),
(§3) Johnson in well (B), and 10 microliters of alcohol, in well (A). The microplate is left for 15 min at ambient temperature (which is sufficient to allow the action, if any, of the insecticide),
(§4) 3°determination of the catalytic activity of the ACE (acetylcholinesterase): in each well is added 100 microliters of a solution containing acetylcholine (2.5 mM) and 0.2 mM of DTNB (dinitro-2-benzoic). The intensity of the coloration is assessed by measuring the optical density (the optical density increases based on the coloration) If the enzyme is active, the products of the hydrolysis of the acetylcholine react with the DTNB to produce a substance that features an absorption peak for the radiations of 412 nm. It is therefore possible to follow the reaction by spectrophotometry. […]

[2] = tested on: ACE (acetylcholinesterase) of sensitive mosquitoes; settings: 10 microliters insecticide solution (10^-2 M), 15 min at ambient temperature, optical density over 10 min
Experimental: as §1, §2, §3, §4

Culex quinquefasciatus = settings: J. Med. Entomol. 41 (4) (2004); cited from earlier work
Aedes aegypti = settings: J. Med. Entomol. 41 (4) (2004); cited from earlier work
[3] = tested on: VKPR mosquito strain (also called VKPER) of Anopheles gambiae; settings: VKPR strain with mutation for knockdown resistance to pyrethroids; cited from earlier work
Anopheles gambiae = settings: J. Med. Entomol. 41 (4) (2004); cited from earlier work

Structure (SMILES)	Effect of the insecticide on ACE catalytic activity (evolution of the optical density, insecticide well (B) vs control well (A)) [1]	Effect of the insecticide on ACE catalytic activity (evolution of the optical density, insecticide well (B) vs control well (A)) [2]	Effect on mosquitoes (Culex quinquefasciatus)	Effect on mosquitoes (Aedes aegypti)	Effect on mosquitoes [3]	Effect on mosquitoes (Anopheles gambiae)
CNC(=O)Oc1ccccc1OC(C)C [Propoxur]	completely resistant	insufficient to prevent the Propoxur insecticide (Baygon) from working				
CN/C(=N/CC1CCOC1)N[N+](=O)[O-] (stereo not drawn) [Dinotefuran]			lethal effect	lethal effect	lethal effect	lethal effect

From patent publication US20250324969A1
